The source made the active and inactive calls. No cut-off for these calls is given here.
Experiments:
P388 = assay: Cytotoxicity against mouse P388 cells assessed as reduction in cell viability at >= 20 nM after 96 hrs by MTT assay; type: functional, cell-based
[1] = biological target: Histone deacetylase 1 (Homo sapiens) (UniProt Q13547); assay: Inhibition of human FLAG-tagged HDAC1 expressed in human 293T cells up to 50 uM using Ac-KGLGK(Ac)-MCA as substrate after 30 mins by fluorescence assay
Sequence of Histone deacetylase 1 (Homo sapiens) (Q13547 whole entry): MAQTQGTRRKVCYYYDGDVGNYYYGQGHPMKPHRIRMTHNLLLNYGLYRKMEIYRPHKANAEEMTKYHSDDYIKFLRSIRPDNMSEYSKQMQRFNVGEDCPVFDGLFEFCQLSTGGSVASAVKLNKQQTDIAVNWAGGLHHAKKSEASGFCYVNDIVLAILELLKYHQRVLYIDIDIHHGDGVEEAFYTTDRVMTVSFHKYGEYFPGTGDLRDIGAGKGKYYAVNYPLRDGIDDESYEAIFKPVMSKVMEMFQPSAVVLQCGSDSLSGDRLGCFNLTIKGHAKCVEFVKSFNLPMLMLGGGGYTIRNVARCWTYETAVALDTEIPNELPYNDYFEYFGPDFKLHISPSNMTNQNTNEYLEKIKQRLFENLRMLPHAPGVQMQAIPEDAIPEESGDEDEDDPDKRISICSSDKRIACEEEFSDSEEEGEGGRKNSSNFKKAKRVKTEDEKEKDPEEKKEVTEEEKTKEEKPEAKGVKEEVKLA

[2] = biological target: T1, Protein deacetylase HDAC6 (Mus musculus) (UniProt Q9Z2V5); assay: Inhibition of mouse FLAG-tagged HDAC6 expressed in human 293T cells coexpressing HDA2 up to 50 uM using Ac-KGLGK(Ac)-MCA as substrate after 30 mins by fluorescence assay; type: cell-based
T1 sequence (whole entry): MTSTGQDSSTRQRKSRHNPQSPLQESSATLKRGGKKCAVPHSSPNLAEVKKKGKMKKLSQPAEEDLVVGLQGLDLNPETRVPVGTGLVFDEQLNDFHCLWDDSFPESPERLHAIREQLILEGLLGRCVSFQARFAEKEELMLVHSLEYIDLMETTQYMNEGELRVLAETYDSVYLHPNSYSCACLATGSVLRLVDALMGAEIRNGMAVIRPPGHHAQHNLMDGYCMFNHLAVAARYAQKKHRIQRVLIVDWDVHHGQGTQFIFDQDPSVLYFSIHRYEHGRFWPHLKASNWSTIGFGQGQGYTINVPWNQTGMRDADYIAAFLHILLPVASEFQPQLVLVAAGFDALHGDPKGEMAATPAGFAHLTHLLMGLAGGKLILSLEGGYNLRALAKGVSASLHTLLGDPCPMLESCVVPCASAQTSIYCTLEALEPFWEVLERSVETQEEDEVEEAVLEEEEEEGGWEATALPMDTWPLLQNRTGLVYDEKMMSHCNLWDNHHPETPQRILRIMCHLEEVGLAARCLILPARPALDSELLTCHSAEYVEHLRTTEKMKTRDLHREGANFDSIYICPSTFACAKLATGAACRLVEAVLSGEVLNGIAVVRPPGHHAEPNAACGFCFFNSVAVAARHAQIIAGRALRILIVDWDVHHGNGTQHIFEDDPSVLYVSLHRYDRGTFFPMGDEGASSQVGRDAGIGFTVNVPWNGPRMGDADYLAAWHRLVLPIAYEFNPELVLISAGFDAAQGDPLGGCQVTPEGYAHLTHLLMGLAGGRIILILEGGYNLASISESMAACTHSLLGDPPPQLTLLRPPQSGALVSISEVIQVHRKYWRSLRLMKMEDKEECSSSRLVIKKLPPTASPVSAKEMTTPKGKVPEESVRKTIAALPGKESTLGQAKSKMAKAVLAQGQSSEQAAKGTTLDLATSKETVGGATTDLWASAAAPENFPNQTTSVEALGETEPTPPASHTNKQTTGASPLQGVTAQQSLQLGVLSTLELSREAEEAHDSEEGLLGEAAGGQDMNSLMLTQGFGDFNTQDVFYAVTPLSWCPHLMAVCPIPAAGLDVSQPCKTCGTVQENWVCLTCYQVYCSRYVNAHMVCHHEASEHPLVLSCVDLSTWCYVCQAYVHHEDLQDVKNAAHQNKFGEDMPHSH

[3] = biological target: T2, NAD-dependent protein deacetylase sirtuin-1 (Homo sapiens) (UniProt Q96EB6); assay: Inhibition of human SIRT1 expressed in Escherichia coli BL21(DE3) up to 50 uM using Ac-RHKK(Ac)-MCA as substrate after 60 mins in presence of NAD by fluorescence assay
T2 sequence (whole entry): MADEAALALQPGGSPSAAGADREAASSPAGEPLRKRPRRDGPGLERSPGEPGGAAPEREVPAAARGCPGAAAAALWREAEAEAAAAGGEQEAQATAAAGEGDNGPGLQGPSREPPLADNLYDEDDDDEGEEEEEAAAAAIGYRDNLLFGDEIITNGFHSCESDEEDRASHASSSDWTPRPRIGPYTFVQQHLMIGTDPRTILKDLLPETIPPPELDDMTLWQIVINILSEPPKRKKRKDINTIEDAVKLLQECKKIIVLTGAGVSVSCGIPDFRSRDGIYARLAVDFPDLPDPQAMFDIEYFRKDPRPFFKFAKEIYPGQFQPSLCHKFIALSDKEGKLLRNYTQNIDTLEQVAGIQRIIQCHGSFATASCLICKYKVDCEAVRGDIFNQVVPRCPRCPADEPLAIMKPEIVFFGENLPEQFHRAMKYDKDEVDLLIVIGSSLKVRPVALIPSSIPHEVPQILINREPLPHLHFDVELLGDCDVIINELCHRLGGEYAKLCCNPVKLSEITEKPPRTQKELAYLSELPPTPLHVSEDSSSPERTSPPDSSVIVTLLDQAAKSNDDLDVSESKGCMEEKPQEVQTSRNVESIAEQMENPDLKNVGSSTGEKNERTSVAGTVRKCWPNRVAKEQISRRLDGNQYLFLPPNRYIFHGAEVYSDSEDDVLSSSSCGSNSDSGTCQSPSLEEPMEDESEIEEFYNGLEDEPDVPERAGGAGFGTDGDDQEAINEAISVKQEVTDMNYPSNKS

inhibition [1]: inactive
inhibition [2]: inactive
inhibition [3]: inactive
Structure (SMILES): CCC(=O)CC(CC/C=C/C=C/CC/C=C\[C@@H]1CSC([C@@H]2C[C@@H]2C)=N1)OC (some centres undefined)
Activity (P388): Active
